The target of the experiment is T1, human ENPP1 (Homo sapiens, UniProt P22413).
T1 construct: purchased Biovendor AP-18-081; host or cells: HEK293
T1 sequence (P22413 1-925): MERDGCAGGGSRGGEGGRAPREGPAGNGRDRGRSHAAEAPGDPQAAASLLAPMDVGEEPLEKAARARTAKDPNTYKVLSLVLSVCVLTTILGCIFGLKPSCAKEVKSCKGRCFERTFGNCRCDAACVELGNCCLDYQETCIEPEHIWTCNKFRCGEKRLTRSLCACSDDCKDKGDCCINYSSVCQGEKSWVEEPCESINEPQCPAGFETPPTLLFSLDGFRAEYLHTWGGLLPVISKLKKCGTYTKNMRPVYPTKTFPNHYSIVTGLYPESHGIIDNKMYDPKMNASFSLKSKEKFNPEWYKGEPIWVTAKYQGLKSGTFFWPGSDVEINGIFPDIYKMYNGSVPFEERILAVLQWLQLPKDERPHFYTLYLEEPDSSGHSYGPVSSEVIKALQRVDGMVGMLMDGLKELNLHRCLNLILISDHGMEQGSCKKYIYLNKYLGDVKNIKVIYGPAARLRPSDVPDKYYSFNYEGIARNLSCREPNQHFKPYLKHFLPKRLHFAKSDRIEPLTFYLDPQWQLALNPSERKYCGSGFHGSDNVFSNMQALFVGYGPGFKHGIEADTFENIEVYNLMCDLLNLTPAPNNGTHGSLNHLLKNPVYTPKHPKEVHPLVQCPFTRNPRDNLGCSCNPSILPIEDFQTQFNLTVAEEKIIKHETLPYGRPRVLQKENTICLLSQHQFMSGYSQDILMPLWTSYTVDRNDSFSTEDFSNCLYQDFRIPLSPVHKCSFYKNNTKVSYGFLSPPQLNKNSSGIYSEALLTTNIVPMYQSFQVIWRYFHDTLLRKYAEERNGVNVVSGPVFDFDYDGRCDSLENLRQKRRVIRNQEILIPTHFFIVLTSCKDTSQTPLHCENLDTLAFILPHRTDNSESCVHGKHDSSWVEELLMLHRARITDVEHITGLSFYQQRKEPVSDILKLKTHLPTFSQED
Briefly: In vitro enzyme activity assay: human ENPP1 enzymatic assay (cGAMP), AMP-Glo. The following applies: substrate cGAMP, AMP-Glo detection. The format is biochemical. As for the experimental part:
AMP-Glo Assay Kit (PROMEGA, V5012), ENPP-1-IN-1 (MCE, HY-129490), white opaque 384-well plate (Perkin Elmer, 6008289), Mammalian (non-canonical) CDN, cyclic[g(2′,5′)pA(3′,5′)p](referred to as cGAMP hereinafter, Invivogen, tlrl-nacga23-5), ENPP1 Protein Human HEK293 (Biovendor, AP-18-081).
• 1) Preparing 1× reaction buffer (Tris buffer), 1× enzyme buffer, and 1× substrate buffer; • 2) diluting the compounds using Echo550 and supplementing with DMSO; • 3) pre-loading 2.5 μL of enzyme solution on a reaction plate (adding 2.5 μL of buffer instead as negative control) and incubating it at room temperature; • 4) adding 2.5 μL of substrate solution to the system and incubating it at room temperature; • 5) adding 5 μL of AMP-Glo solution that has been allowed to cooled down to room temperature, centrifuging and reacting at room temperature, • 6) adding 10 μL of AMP Detection solution at room temperature, centrifuging and reacting at room temperature; and • 7) reading the plate using EnVision.
`C[S@@](=N)(=O)c1ccc(Cn2c(=O)[nH]c3cnc4c5c(ccc4c32)OCO5)cc1` (single isomer, unassigned) [Compound 43-P1]: the half-inhibitory concentration (IC50) is 10 to 50 nM.
Under `C[S@](=N)(=O)c1ccc(Cn2c(=O)[nH]c3cnc4c5c(ccc4c32)OCO5)cc1` (single isomer, unassigned) [Compound 43-P2] stands under 10 nM; under `O=c1[nH]c2cnc3c4c(ccc3c2n1Cc1c(F)cc(P(=O)(O)O)cc1F)OCO4` [Compound 2, (3,5-difluoro-4-((7-oxo-6,7-dihydro-8H-[1,3]dioxolo[4,5-h]imidazo[4,5-c]quinolin-8-yl)methyl)phenyl)phosphonic acid], under 10 nM.
As to `Cn1c(=O)n(Cc2ccc(P(=O)(O)O)c(F)c2)c2c3ccc4c(c3ncc21)OCO4` [Compound 3, (2-fluoro-4-((6-methyl-7-oxo-6,7-dihydro-8H-[1,3]dioxolo[4,5-h]imidazo[4,5-c]quinolin-8-yl)methyl)phenyl)phosphonic acid], the IC50 is under 10 nM.
The compound `O=c1[nH]c2cnc3c4c(ccc3c2n1Cc1ccc(P(=O)(O)O)cc1F)OCO4` [Compound 4, (3-fluoro-4-((7-oxo-6,7-dihydro-8H-[1,3]dioxolo[4,5-h]imidazo[4,5-c]quinolin-8-yl)methyl)phenyl)phosphonic acid] showed an IC50 of under 10 nM.
Under `CC(c1ccc(P(=O)(O)O)c(F)c1)n1c(=O)[nH]c2cnc3c4c(ccc3c21)OCO4` (stereo not shown) [Compound 5-P1] stands under 10 nM.
Under `CC(c1ccc(P(=O)(O)O)c(F)c1)n1c(=O)[nH]c2cnc3c4c(ccc3c21)OCO4` (stereo not shown) [Compound 5-P2] stands under 10 nM.
As to `CCn1c(=O)n(Cc2ccc(P(=O)(O)O)c(F)c2)c2c3ccc4c(c3ncc21)OCO4` [Compound 6, (4-((6-ethyl-7-oxo-6,7-dihydro-8H-[1,3]dioxolo[4,5-h]imidazo[4,5-c]quinolin-8-yl)methyl)-2-fluorophenyl)phosphonic acid], the IC50 is under 10 nM.
Compound `O=c1n(CC(F)F)c2cnc3c4c(ccc3c2n1Cc1ccc(P(=O)(O)O)c(F)c1)OCO4` [Compound 7] displayed a half-maximal inhibitory concentration (IC50) of under 10 nM.
The result for `O=c1[nH]c2cnc3c4c(ccc3c2n1Cc1ccc(P(=O)(O)O)c2ccccc12)OCO4` [Compound 8] reads 10 to 50 nM; that for `O=c1[nH]c2cnc3c4c(ccc3c2n1Cc1ccc(P(=O)(O)O)c(F)c1F)OCO4` [Compound 9], under 10 nM; that for `CC(C)n1c(=O)n(Cc2ccc(P(=O)(O)O)c(F)c2)c2c3ccc4c(c3ncc21)OCO4` [Compound 10], under 10 nM.
The compound `O=c1n(Cc2ccc(P(=O)(O)O)c(F)c2)c2c3ccc4c(c3ncc2n1C1CC1)OCO4` [Compound 11] gave an IC50 of under 10 nM.
The result for `O=c1[nH]c2cnc3c4c(ccc3c2n1Cc1c(F)cc(P(=O)(O)O)c(F)c1F)OCO4` [Compound 12] reads under 10 nM; that for `O=c1[nH]c2cnc3c4c(ccc3c2n1Cc1cc(F)c(P(=O)(O)O)cc1Cl)OCO4` [Compound 13], under 10 nM; that for `Cc1cc(P(=O)(O)O)c(F)cc1Cn1c(=O)[nH]c2cnc3c4c(ccc3c21)OCO4` [Compound 14], under 10 nM.
`O=c1[nH]c2cnc3c4c(ccc3c2n1Cc1ccc(P(=O)(O)O)c(Cl)c1)OCO4` [Compound 15] returned an IC50 of under 10 nM.
`O=c1[nH]c2cnc3c4c(ccc3c2n1Cc1ccc(P(=O)(O)O)c(Br)c1)OCO4` [Compound 16] showed an IC50 of under 10 nM.
Compound `O=c1[nH]c2cnc3c4c(ccc3c2n1Cc1cc(F)c(P(=O)(O)O)cc1F)OCO4` [Compound 17] came in with an IC50 of under 10 nM.
With `CC(C)Cn1c(=O)n(Cc2ccc(P(=O)(O)O)c(F)c2)c2c3ccc4c(c3ncc21)OCO4` [Compound 18], the concentration for half-maximal inhibition (IC50) was under 10 nM.
Take `O=c1n(CC2CCC2)c2cnc3c4c(ccc3c2n1Cc1ccc(P(=O)(O)O)c(F)c1)OCO4` [Compound 19]: the IC50 was under 10 nM.
On to `O=c1n(CC2CCCC2)c2cnc3c4c(ccc3c2n1Cc1ccc(P(=O)(O)O)c(F)c1)OCO4` [Compound 20], for which the 50% inhibitory concentration (IC50) is under 10 nM.
`O=c1n(CC2CCC(F)(F)CC2)c2cnc3c4c(ccc3c2n1Cc1ccc(P(=O)(O)O)c(F)c1)OCO4` [Compound 21] yielded an IC50 of under 10 nM.
Regarding `CC(C)(C)Cn1c(=O)n(Cc2ccc(P(=O)(O)O)c(F)c2)c2c3ccc4c(c3ncc21)OCO4` [Compound 22], the IC50 was under 10 nM.
As for `O=c1n(CC(F)(F)F)c2cnc3c4c(ccc3c2n1Cc1ccc(P(=O)(O)O)c(F)c1)OCO4` [Compound 23], the IC50 was under 10 nM.
Under `O=c1n(CCC(F)(F)F)c2cnc3c4c(ccc3c2n1Cc1ccc(P(=O)(O)O)c(F)c1)OCO4` [Compound 24] stands under 10 nM; under `O=c1n(CCC2CCOCC2)c2cnc3c4c(ccc3c2n1Cc1ccc(P(=O)(O)O)c(F)c1)OCO4` [Compound 25], under 10 nM.
The result for `O=c1n(CCCF)c2cnc3c4c(ccc3c2n1Cc1ccc(P(=O)(O)O)c(F)c1)OCO4` [Compound 26] reads under 10 nM.
Consider `O=c1n(Cc2ccc(P(=O)(O)O)c(F)c2)c2c3ccc4c(c3ncc2n1C1CCCC1)OCO4` [Compound 27], for which the IC50 was under 10 nM.
The result for `O=c1n(Cc2ccc(P(=O)(O)O)c(F)c2)c2c3ccc4c(c3ncc2n1C1CCOCC1)OCO4` [Compound 28] reads under 10 nM; that for `O=c1n(CCCOC2CCOCC2)c2cnc3c4c(ccc3c2n1Cc1ccc(P(=O)(O)O)c(F)c1)OCO4` [Compound 29], under 10 nM.
The result for `CC(C)CCn1c(=O)n(Cc2ccc(P(=O)(O)O)c(F)c2)c2c3ccc4c(c3ncc21)OCO4` [Compound 30] reads under 10 nM; that for `CS(=O)(=O)CCn1c(=O)n(Cc2ccc(P(=O)(O)O)c(F)c2)c2c3ccc4c(c3ncc21)OCO4` [Compound 31], under 10 nM; that for `O=c1n(CCCN2CCOCC2)c2cnc3c4c(ccc3c2n1Cc1ccc(P(=O)(O)O)c(F)c1)OCO4` [Compound 32], under 10 nM.
Under `CN(C)CCn1c(=O)n(Cc2ccc(P(=O)(O)O)c(F)c2)c2c3ccc4c(c3ncc21)OCO4` [Compound 33] stands under 10 nM; under `CN(C)CCCn1c(=O)n(Cc2ccc(P(=O)(O)O)c(F)c2)c2c3ccc4c(c3ncc21)OCO4` [Compound 34], under 10 nM.
Consider `NS(=O)(=O)c1cc(F)c(Cn2c(=O)[nH]c3cnc4c5c(ccc4c32)OCO5)c(F)c1` [Compound 35], for which the IC50 was under 10 nM.
The result for `NS(=O)(=O)c1ccc(Cn2c(=O)[nH]c3cnc4c5c(ccc4c32)OCO5)cc1` [Compound 36] reads under 10 nM.
`NS(=O)(=O)c1ccc(Cn2c(=O)[nH]c3cnc4c5c(ccc4c32)OCO5)cc1F` [Compound 37] came in with an IC50 of under 10 nM.
On to `NS(=O)(=O)c1ccc(Cn2c(=O)[nH]c3cnc4c5c(ccc4c32)OCO5)c(F)c1F` [Compound 38], for which the 50% inhibitory concentration (IC50) was under 10 nM.
As to `NS(=O)(=O)c1ccc(Cn2c(=O)[nH]c3cnc4c5c(ccc4c32)OCO5)c(F)c1` [Compound 39], the IC50 was under 10 nM.
`NS(=O)(=O)c1ccc(Cn2c(=O)[nH]c3cnc4c5c(ccc4c32)OCO5)nc1` [Compound 40] came in with an IC50 of under 10 nM.
Under `CCn1c(=O)n(Cc2c(F)cc(S(N)(=O)=O)cc2F)c2c3ccc4c(c3ncc21)OCO4` [Compound 41] stands under 10 nM.
The result for `CS(=N)(=O)c1ccc(Cn2c(=O)[nH]c3cnc4c5c(ccc4c32)OCO5)cc1F` (stereo not shown) [Compound 42] reads under 10 nM.
Under `Cn1c(=O)n(Cc2ccc(S(C)(=N)=O)cc2)c2c3ccc4c(c3ncc21)OCO4` (stereo not shown) [Compound 44] stands under 10 nM.
The compound `CCn1c(=O)n(Cc2ccc(S(C)(=N)=O)cc2)c2c3ccc4c(c3ncc21)OCO4` (stereo not shown) [Compound 45] had an IC50 of under 10 nM.
The result for `O=c1[nH]c2cnc3c4c(ccc3c2n1Cc1c(F)cc(B(O)O)cc1F)OCO4` [Compound 46] reads under 10 nM; that for `Cn1c(=O)n(Cc2c(F)cc(B(O)O)cc2F)c2c3ccc4c(c3ncc21)OCO4` [Compound 47], under 10 nM.
The result for `O=c1[nH]c2cnc3c4c(ccc3c2n1Cc1ccc(B(O)O)cc1)OCO4` [Compound 48] reads under 10 nM.

As usually defined, the IC50 is the midpoint of a concentration-inhibition curve. A lower IC50 goes with greater potency.

The values are drawn from patent US20250206763A1, “ENPP1 INHIBITOR” (SHANGHAI QILU PHARMACEUTICAL RESEARCH AND DEVELOPMENT …, priority 2022, published 2025).
